In patent US20250235545A1, “POLYPEPTIDE CONJUGATE AND USE THEREOF” (SHANGHAI CHIXI BIOMEDICAL TECHNOLOGY CO., LTD, priority 2024, published 2025):
Values after ≈ are worked out from the molar mass of the structure shown. Like-named read-outs stand apart in the source and are kept apart here. Where a SMILES comes first, the peptide text is derived from it. The star is where a group is joined. X2 = CCCCN(CCc1c2c(nc3ccccc13)-c1cc3c(c(=O)n1C2)COC(=O)[C@]3(O)CC)*; X4 = CCCN(CCc1c2c(nc3ccccc13)-c1cc3c(c(=O)n1C2)COC(=O)[C@]3(O)CC)*; X5 = CC[C@@]1(O)C(=O)OCc2c1cc1n(c2=O)Cc2c-1nc1ccccc1c2CCN(CC(C)C)*; Propanoyl(3-maleimido) = O=C1C=CC(=O)N1CCC(=O)*; PEG6 = NCCOCCOCCOCCOCCOCCOCCC(=O)O

Legend:
[1] = MTD determination in mice (Examples 27, 36, 44); format: in vivo; conditions: female, mouse, in vivo, mice, monitored for 14 d; for MTD: read-out: MTD
From the text: Test animals: 6-8 weeks old mice, all female; mice were grouped randomly, with six mice in each group, administered with drugs at different concentration gradients separately and monitored for 14 d. A mouse was euthanized at a loss of 20% of its initial weight and deemed to have died of poisoning.

[2] = test system: SKBR3 (breast cancer tissue); experiment: cells; format: cell-based; conditions: for IC50 Breast cancer tissue (SKBR3): CCK8, 48 h, Table 6
How it was run: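 CCK8 absorbance at 450 nm, read after roughly 2 h of staining, gave cell survival rates from which IC50 values were derived. Beforehand, 5,000 cells/well were exposed for 48 h at 37° C to serial drug dilutions (triplicate wells; 0.1% DMSO vehicle control; cell-free blanks).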

[3] = Tumor homogenate activation efficiency, sarcoma tissue (Examples 28, 37); format: in vitro ADME; conditions: pH 5.0, 37° C., 2 h
How it was run: (§1)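 Activation is reported as the fraction of free Belotecan peak area among all Belotecan-bearing peaks by HPLC. The conjugate (1 mg/ml) reacts with 100 μg homogenate for 2 h at 37° C in MES buffer, pH 5.0.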

[4] = test system: sarcoma SJSA-1 tumor model; experiment: Efficacy in animal model of sarcoma SJSA-1, 30 mg/kg once a week for two weeks (Example 40); format: in vivo, BALB/c mice; conditions: for SJSA-1 (sarcoma tissue) mean tumor volume (mm^3) Day 1 / SJSA-1 (sarcoma tissue) mean tumor volume (mm^3) Day 4 / SJSA-1 (sarcoma tissue) mean tumor volume (mm^3) Day 7 / SJSA-1 (sarcoma tissue) mean tumor volume (mm^3) Day 10 / Mouse weight (%) on Day 14 / SJSA-1 (sarcoma tissue) growth rate (%) on Day 14 / SJSA-1 (sarcoma tissue) mean tumor volume (mm^3) Day 14: 30 mg/kg once a week for two weeks
Experimental: Test objective: To further compare the antitumor efficacy of different polypeptide Linkers in an animal tumor model of sarcoma SJSA-1.
Test drug: Polypeptide conjugate and normal saline control group.
The control group was administered normal saline. Administration was performed once a week for two weeks.

[5] = Tumor homogenate activation efficiency, breast cancer tissue (Examples 28, 37); format: in vitro ADME; conditions: pH 5.0, 37° C., 2 h
How it was run: as §1

[6] = Tumor homogenate activation efficiency, small cell lung cancer tissue (Example 28); format: in vitro ADME; conditions: pH 5.0, 37° C., 2 h; Table 5
How it was run: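 Polypeptide conjugate at 1 mg/ml in 50 mM MES, 250 mM NaCl, pH 5.0 incubated with 100 μg small cell lung cancer tissue homogenate at 37° C. for 2 h. HPLC quantified Belotecan release as Belotecan peak area over total area of Belotecan plus all Belotecan-containing compounds.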

[7] = Tumor homogenate activation efficiency, non-small cell lung cancer tissue (Examples 28, 37); format: in vitro ADME; conditions: pH 5.0, 37° C., 2 h
How it was run: as §1

[8] = Tumor homogenate activation efficiency, colorectal cancer tissue (Example 37); format: in vitro ADME; conditions: pH 5.0, 37° C., 2 h; Table 10
Experimental: Buffer preparation: 50 mM PH buffer (MES), 250 mM NaCl, pH adjusted to 5.0 with 0.5 M of sodium hydroxide.
The polypeptide conjugate was prepared into a 1 mg/ml solution with pH 5.0 buffer, 100 μg of tumor tissue homogenate was added, (the tumor tissue homogenate was the homogenate of tumor tissues prepared with a Jingxin F6/10 handheld homogenizer), and the solution was placed at 37° C. for 2 h. The tumor tissue homogenate could effectively activate the polypeptide conjugate and release Belotecan, and the activation efficiencies of the drugs in tumor tissues were compared by HPLC allowing determination of a decrease in the compounds and an increase in Belotecan:
Release percentage=peak area of Belotecan/total peak area of Belotecan and all other Belotecan-containing compounds

SMILES	SJSA-1 (sarcoma tissue) mean tumor volume (mm^3) Day 1 [4]	SJSA-1 (sarcoma tissue) mean tumor volume (mm^3) Day 4 [4]	SJSA-1 (sarcoma tissue) mean tumor volume (mm^3) Day 7 [4]	SJSA-1 (sarcoma tissue) mean tumor volume (mm^3) Day 10 [4]	Mouse weight (%) on Day 14 [4]	SJSA-1 (sarcoma tissue) growth rate (%) on Day 14 [4]	SJSA-1 (sarcoma tissue) mean tumor volume (mm^3) Day 14 [4]	IC50 Breast cancer tissue (SKBR3) [2]	Percentage of release efficiency (%) Colorectal cancer tissue (colo320) [8]	Percentage of release efficiency (%) Sarcoma tissue (SJSA1) ([3]; Table 10)	Percentage of release efficiency (%) Breast cancer tissue (SKBR3) ([5]; Table 10)	Percentage of release efficiency (%) Non-small cell lung cancer tissue (A549) ([7]; Table 10)	other results
CC[C@@]1(O)C(=O)OCC2=C1C=C1c3nc4ccccc4c(CCN(C(=O)OCc4ccc(NC(=O)[C@H](CC(N)=O)NC(=O)[C@H](C)NC(=O)[C@H](C)NC(=O)CCOCCOCCOCCOCCOCCOCCNC(=O)CCN5C(=O)C=CC5=O)cc4)C(C)C)c3CN1C2 [MI-6PEG-AAN-PAB-Belotecan]	131.25 mm^3	208.13 mm^3	554.02 mm^3	706.21 mm^3	−6.9%	1005.49%	1319.7 mm^3	–	–	–	–	–	MTD ([1]; Table 15 (Example 44), six per group): 100 mg/kg; MTD ([1]; Table 4): 100 mg/kg; IC50 SKBR3 (breast cancer tissue) ([2]; 48 h): 0.40 µg/mL (≈ 0.305 µM); Percentage of release efficiency (%) Sarcoma tissue (SJSA1) ([3]; Table 5): 78.5%; tumor suppression effect (in words) ([4]; 30 mg/kg, SJSA-1 model, Example 40): neither MI-6PEG-AAGP-D2 nor MI-6PEG-AAN-PAB-Belotecan had a satisfactory tumor suppression effect; Percentage of release efficiency (%) Breast cancer tissue (SKBR3) ([5]; Table 5): 69.4%; Percentage of release efficiency (%) Small cell lung cancer tissue (NCI-H841) [6]: 61.5%; Percentage of release efficiency (%) Non-small cell lung cancer tissue (A549) ([7]; Table 5): 79.9%
CCCN(CCc1c2c(nc3ccccc13)-c1cc3c(c(=O)n1C2)COC(=O)[C@]3(O)CC)C(=O)[C@H](CC(C)C)NC(=O)[C@H](CC(N)=O)NC(=O)[C@H](C)NC(=O)[C@H](C)NC(=O)CCOCCOCCOCCOCCOCCOCCNC(=O)CCN1C(=O)C=CC1=O [MI-6PEG-AANL-D3] ({Propanoyl(3-maleimido)-PEG6}-AANL-X4)	137.17 mm^3	436.65 mm^3	735.18 mm^3	1111.34 mm^3	+4.2%	1316.37%	1805.67 mm^3	2.56 µg/mL (≈ 1.99 µM)	71.6%	90%	67.9%	66.8%	MTD at 14 d ([1]; Table 9): 200 mg/kg
CCCCN(CCc1c2c(nc3ccccc13)-c1cc3c(c(=O)n1C2)COC(=O)[C@]3(O)CC)C(=O)[C@H](CC(C)C)NC(=O)[C@H](CC(N)=O)NC(=O)[C@H](C)NC(=O)[C@H](C)NC(=O)CCOCCOCCOCCOCCOCCOCCNC(=O)CCN1C(=O)C=CC1=O [MI-6PEG-AANL-D4] ({Propanoyl(3-maleimido)-PEG6}-AANL-X2)	142.01 mm^3	486.37 mm^3	739.25 mm^3	1068.21 mm^3	+2.3%	1137.43%	1615.26 mm^3	3.94 µg/mL (≈ 3.02 µM)	76.5%	81.2%	75.3%	77.7%	–
CC[C@@]1(O)C(=O)OCc2c1cc1n(c2=O)Cc2c-1nc1ccccc1c2CCN(CC(C)C)C(=O)[C@H](CC(C)C)NC(=O)[C@H](CC(N)=O)NC(=O)[C@H](C)NC(=O)[C@H](C)NC(=O)CCOCCOCCOCCOCCOCCOCCNC(=O)CCN1C(=O)C=CC1=O [MI-6PEG-AANL-D5] ({Propanoyl(3-maleimido)-PEG6}-AANL-X5)	139.89 mm^3	429.56 mm^3	658.17 mm^3	876.45 mm^3	−1.1%	979.44%	1370.14 mm^3	2.20 µg/mL (≈ 1.69 µM)	69.8%	77.5%	70.2%	85.5%	–
